Assay results: PMC10140157, “Molecular determinants for differential activation of the bile acid receptor from the pathogen Vibrio parahaemolyticus” (The Journal of Biological Chemistry, 2023)

Key:
[1] = biological target: T1, VtrA–VtrC periplasmic domain complex (heterodimer) (Vibrio parahaemolyticus, UniProt Q87GI3+Q87GI4); assay: isothermal titration calorimetry; assay type: binding
T1 construct: gene VPA1333; periplasmic domains: VtrC residues 31-161 with N-terminal His6 tag, coexpressed with VtrA residues 161-253 (pACYC-Duet-VtrC/VtrA, E. coli BL21(DE3)); heterodimer, bile acid lies in the beta-barrel, contacts printed are VtrC residues

[2] = biological target: T1, VtrA–VtrC periplasmic domain complex (heterodimer); assay: isothermal titration calorimetry; crystal structure of the complex also solved ([…] Å); assay type: binding
[3] = biological target: T2, VtrA–VtrC periplasmic domain complex (heterodimer) (Vibrio parahaemolyticus, UniProt Q87GI3+Q87GI4, Q87GI3:H50A); assay: biochemical
T2 construct: gene VPA1333
Excerpt: (§1) isothermal titration calorimetry on VtrA–VtrC periplasmic domain complex (heterodimer)

[4] = biological target: T3, VtrA–VtrC periplasmic domain complex (heterodimer) (Vibrio parahaemolyticus, UniProt Q87GI3+Q87GI4, Q87GI3:S123A); assay: biochemical
T3 construct: gene VPA1333
Excerpt: as §1

[5] = biological target: T4, VtrA–VtrC periplasmic domain complex (heterodimer) (Vibrio parahaemolyticus, UniProt Q87GI3+Q87GI4, Q87GI3:Y151A); assay: biochemical
T4 construct: gene VPA1333
Excerpt: as §1

[6] = biological target: T5, VtrA–VtrC periplasmic domain complex (heterodimer) (Vibrio parahaemolyticus, UniProt Q87GI3+Q87GI4, Q87GI3:Y151F); assay: biochemical
T5 construct: gene VPA1333
Excerpt: as §1

[7] = biological target: T6, VtrA–VtrC periplasmic domain complex (heterodimer) (Vibrio parahaemolyticus, UniProt Q87GI3+Q87GI4, Q87GI3:Y81A); assay: biochemical
T6 construct: gene VPA1333
Excerpt: as §1

Row | Compound | Kd [1] | Kd [2] | Kd [3] | Kd [4] | Kd [5] | Kd [6] | Kd [7]
1 | C[C@H](CCC(=O)O)[C@H]1CC[C@H]2[C@@H]3[C@H](O)C[C@@H]4C[C@H](O)CC[C@]4(C)[C@H]3C[C@H](O)[C@]12C [CA, cholate] | 0.377 µM |  |  |  |  |  | 
2 | C[C@H](CCC(=O)O)[C@H]1CC[C@H]2[C@@H]3[C@H](O)C[C@@H]4C[C@H](O)CC[C@]4(C)[C@H]3CC[C@]12C [CDC, chenodeoxycholate] |  | 0.31 µM | 0.904 µM | 0.202 µM | 2.28 µM | 1.17 µM | 0.731 µM
3 | C[C@H](CCC(=O)O)[C@H]1CC[C@H]2[C@@H]3CC[C@@H]4C[C@H](O)CC[C@]4(C)[C@H]3C[C@H](O)[C@]12C [DC, deoxycholate] | 0.232 µM |  |  |  |  |  | 
4 | C[C@H](CCC(=O)NCC(=O)O)[C@H]1CC[C@H]2[C@@H]3[C@H](O)C[C@@H]4C[C@H](O)CC[C@]4(C)[C@H]3CC[C@]12C [GCDC, glycochenodeoxycholate] | 0.211 µM |  |  |  |  |  | 
5 | C[C@H](CCC(=O)NCCS(=O)(=O)O)[C@H]1CC[C@H]2[C@@H]3CC[C@@H]4C[C@H](O)CC[C@]4(C)[C@H]3C[C@H](O)[C@]12C [TDC, taurodeoxycholate] | 0.129 µM |  | 0.301 µM | 0.0912 µM | 2.5 µM | 0.873 µM | 1.19 µM
